Reference: patent US20100016225A1, “CONJUGATES COMPRISED OF POLYMER AND HIV gp-41-DERIVED PEPTIDES AND THEIR USE IN THERAPY” (Trimeris, Inc., priority 2002, published 2010)

Columns and labels:
[1] = test system: HIV-1 T20S-A; type: cell-based; conditions: virus HIV-1 T20S-A
Source text: (§1) Illustrated in this example is the unexpected result of antiviral potency using the conjugates according to the present invention. […] In determining antiviral activity (e.g., one measure being the ability to inhibit transmission of HIV to a target cell) of the conjugates according to the present invention, used was an in vitro assay which has been shown, by data generated using synthetic peptides derived from either of the HR regions of HIV gp41, to be predictive of antiviral activity observed in vivo.
(§2) The infectivity assays score for reduction of infectious virus titer employing the indicator cell lines MAGI or the CCR5 expressing derivative cMAGI. Both cell lines exploit the ability of HIV-1 that to transactivate the expression of a β-galactosidase reporter gene driven by the HIV-LTR. The β-gal reporter has been modified to localize in the nucleus and can be detected with the X-gal substrate as intense nuclear staining within a few days of infection. The number of stained nuclei can thus be interpreted as equal to the number of infectious virions in the challenge inoculum if there is only one round of infection prior to staining. Infected cells are enumerated using a CCD-imager and both primary and laboratory adapted isolates show a linear relationship between virus input and the number of infected cells visualized by the imager. […] Peptides tested for antiviral activity were diluted into various concentrations, and tested in duplicate or triplicate against an HIV inoculum adjusted to yield approximately 1500-2000 infected cells/well of a 48 well microtiter plate. The peptide (in the respective dilution) was added to the CMAGI or MAGI cells, followed by the virus inocula; and 24 hours later, an inhibitor of infection and cell-cell fusion (e.g., T20) was added to prevent secondary rounds of HIV infection and cell-cell virus spread. The cells were cultured for 2 more days, and then fixed and stained with the X-gal substrate to detect HIV-infected cells. The number of infected cells for each control and peptide dilution was determined with the CCD-imager, and then the IC50 and IC90 were calculated (expressed in μg/ml).
(§3) IC50 and IC90 are expressed in μg/ml.

[2] = test system: HIV-1 T20S-C; type: cell-based; conditions: virus HIV-1 T20S-C
Source text: as §1, §2, §3

[3] = test system: HIV-1 T20S-D; type: cell-based; conditions: virus HIV-1 T20S-D
Source text: as §1, §2, §3

[4] = test system: HIV-1 T20R-D; type: cell-based; conditions: virus HIV-1 T20R-D
Source text: as §1, §2, §3

[5] = test system: HIV-1 T20R-C; type: cell-based; conditions: virus HIV-1 T20R-C
Source text: as §1, §2, §3

[6] = test system: HIV-1 T20R-A; type: cell-based; conditions: virus HIV-1 T20R-A
Source text: as §1, §2, §3

[7] = test system: HIV-1 T20S-B; type: cell-based; conditions: virus HIV-1 T20S-B
Source text: as §1, §2, §3

[8] = test system: HIV-1 T20R; type: cell-based; conditions: T20-resistant clinical isolate, Table 2
Source text: (§4) The infectivity assays score for reduction of infectious virus titer employing the indicator cell lines MAGI or the CCR5 expressing derivative cMAGI. Both cell lines exploit the ability of HIV-1 that to transactivate the expression of a β-galactosidase reporter gene driven by the HIV-LTR. The β-gal reporter has been modified to localize in the nucleus and can be detected with the X-gal substrate as intense nuclear staining within a few days of infection. The number of stained nuclei can thus be interpreted as equal to the number of infectious virions in the challenge inoculum if there is only one round of infection prior to staining. […] The peptide (in the respective dilution) was added to the CMAGI or MAGI cells, followed by the virus inocula; and 24 hours later, an inhibitor of infection and cell-cell fusion (e.g., T20) was added to prevent secondary rounds of HIV infection and cell-cell virus spread. The cells were cultured for 2 more days, and then fixed and stained with the X-gal substrate to detect HIV-infected cells. The number of infected cells for each control and peptide dilution was determined with the CCD-imager, and then the IC50 and IC90 were calculated (expressed in μg/ml).
In this first example of antiviral potency, two clinical isolates of HIV were obtained from the same HIV-infected individual.
Using the methods taught in Example 1 herein, additional conjugates were produced by varying the polymer, the terminus of the synthetic peptide which is operably bound to polymer, and the reactive functionality used for operably binding synthetic peptide to polymer. Two molecules of synthetic peptide (e.g. SEQ ID NO:4) were operably bound to polymer.

[9] = test system: HIV; conditions: typical range in words; cited from earlier work
[10] = test system: HIV-1 T20S; type: cell-based; conditions: T20-sensitive clinical isolate, Table 2
Source text: as §1, §2
In this first example of antiviral potency, two clinical isolates of HIV were obtained from the same HIV-infected individual. A first isolate, hereby designated “HIV-1 T20S” for ease of description, was sensitive to the antiviral effect of T20 (SEQ ID NO:4) both in vitro and in vivo. […] The results, with the IC50 expressed in ng/ml, are illustrated in Table 2.
Using the methods taught in Example 1 herein, additional conjugates were produced by varying the polymer, the terminus of the synthetic peptide which is operably bound to polymer, and the reactive functionality used for operably binding synthetic peptide to polymer. Two molecules of synthetic peptide (e.g. SEQ ID NO:4) were operably bound to polymer. Such conjugates were then tested for antiviral activity against HIV isolates IIIB, and HIV-1 T20S & HIV-1 T20R (see Table 2 for HIV resistant strains), with the antiviral activity (IC50) expressed in μg/ml. The results for the various conjugates (Table 5, A-Q), terminus of synthetic peptide used for operably binding polymer (Table 5, C-terminus denoted as “C”, N-terminus denoted as “N”) or if an internal lysine was used (Table 5, “Lys 18”, signifying lysine as amino acid residue 18 in the amino acid sequence of the synthetic peptide), antiviral activity (IC50) against HIV-1 strain IIIB (Table 5, “IIIB”), antiviral activity (IC50) against HIV-1 T20S (Table 5, “T20S”) and antiviral activity (IC50) against HIV-1 T20R (Table 5, “T20R”), are illustrated in Table 5.

[11] = test system: SIM/CEM4; type: cell-based, HIV; conditions: virus SIM/CEM4
Source text: as §1, §2
(§5) With reference to Table 4, IC50 and IC90 are expressed in μg/ml.

[12] = test system: 3′GIV/CEM4; type: cell-based, HIV; conditions: virus 3′GIV/CEM4
Source text: as §1, §2, §5

[13] = test system: IIIB/CEM4; type: cell-based, HIV; conditions: virus IIIB/CEM4
Source text: as §1, §2, §5

[14] = test system: HIV-1 T20R-B; type: cell-based; conditions: virus HIV-1 T20R-B
Source text: as §4

[15] = Bioavailability (circulating half-life) in cannulated mice, plasma fluorescence HPLC; type: in vivo; conditions: mouse, 10 mg/kg
Procedure: It is important to note that standard animal model for determining bioavailability has been correlated with the bioavailability of synthetic peptide in vivo in humans (as described in more detail in U.S. Pat. No. 6,258,782). […] A sample of blood was removed at predetermined time intervals (0, 15, 30 min and 1, 2, 4, 6, and 8 hours) and added to collection tubes containing anticoagulant (EDTA). Plasma was harvested from each of the collection tubes, and then subjected to analysis by fluorescence high pressure liquid chromatography (HPLC). In addition to sample dilutions, serial dilutions of dosing solution were performed in buffer as well as in plasma, and used to generate a standard curve relating peak area to known concentration of peptide. This curve was then used to calculate concentration of peptide in plasma taking into account all dilutions performed and quantity injected onto column.

Substance enfuvirtide has an IC50 [1] of 0.006 µg/mL, an IC90 [1] of 0.078 µg/mL and an IC50 [2] of 0.006 µg/mL. It also gave an IC90 [2] of 0.073 µg/mL, an IC50 [3] of 0.018 µg/mL and an IC90 [3] of 0.208 µg/mL. It also gave an IC50 [4] of 2.039 µg/mL, an IC90 [4] of over 5 µg/mL and an IC50 [5] of 1.544 µg/mL. For the same substance, the IC90 [5] was 6.285 µg/mL, the IC50 [6] was over 5 µg/mL and the IC90 [6] was over 5 µg/mL. The IC50 [7] was 0.029 µg/mL, the IC90 [7] was 0.117 µg/mL and the “HIV-1 T20R: IC50” value [8] was 1,211 ng/ml. For the same substance, the “50% effective concentration values (EC50), blocked infection of T cells” value [9] was “in the ng/ml range”, the “HIV-1 T20S: IC50” value [10] was 0.01 µg/mL and the IC50 [11] was 0.584 µg/mL. For the same substance, the IC90 [11] was 3.398 µg/mL, the IC50 [12] was 0.008 µg/mL and the IC90 [12] was 0.050 µg/mL. For the same substance, the IC50 [13] was 0.007 µg/mL, the IC90 [13] was 0.052 µg/mL and the IC50 [14] was 1.898 µg/mL. For the same substance, the IC90 [14] was 7.179 µg/mL, the half-life ([15]; cannulated mice, intravenous, read-out: t½ (converted)) was 1.6 h and the AUC ([15]; iv) was 158 µg·h/mL.
